Test results: ChEMBL document CHEMBL1201862, “PubChem BioAssay data set” (2004)
The source made the active and inactive calls.

Columns and labels:
[1] = target: Cyclin-dependent kinase 5/CDK5 activator 1 (Homo sapiens, UniProt Q00535); assay: CDK5-p25 kinase inhibitors, specificity check, dose response, selectivity assay for GSK-3 alpha inhibitor project, biochemical, microfluidic mobility shift, dry powder (AID 588430)
[2] = target: Glycogen synthase kinase-3 alpha (Homo sapiens, UniProt P49840); assay: Inhibition of Human GSK-3 alpha Activity Measured in Biochemical System Using Microfluidics - 2063-06_Inhibitor_Dose_DryPowder_Activity_Set2. [Related pubchem assays (depositor defined):AID2709]
Chain of Glycogen synthase kinase-3 alpha (P49840 whole entry): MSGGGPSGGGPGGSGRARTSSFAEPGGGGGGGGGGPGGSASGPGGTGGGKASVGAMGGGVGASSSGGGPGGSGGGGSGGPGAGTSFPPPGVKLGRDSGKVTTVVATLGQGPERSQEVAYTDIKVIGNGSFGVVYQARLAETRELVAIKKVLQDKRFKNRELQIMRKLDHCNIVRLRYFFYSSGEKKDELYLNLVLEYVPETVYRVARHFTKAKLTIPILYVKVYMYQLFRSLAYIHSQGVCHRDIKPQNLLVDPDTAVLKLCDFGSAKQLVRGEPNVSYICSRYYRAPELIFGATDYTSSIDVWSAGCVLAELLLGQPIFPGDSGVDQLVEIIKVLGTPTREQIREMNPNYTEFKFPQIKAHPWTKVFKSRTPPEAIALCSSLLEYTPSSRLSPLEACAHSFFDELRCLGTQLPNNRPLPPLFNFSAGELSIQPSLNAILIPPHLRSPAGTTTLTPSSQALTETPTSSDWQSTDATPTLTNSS

[3] = target: Glycogen synthase kinase-3 beta (Homo sapiens, UniProt P49841); assay: Inhibition of Human GSK-3 beta Activity Measured in Biochemical System Using Microfluidics - 2063-05_Inhibitor_Dose_DryPowder_Activity_Set2. [Related pubchem assays (depositor defined):AID2709]
Chain of Glycogen synthase kinase-3 beta (P49841 whole entry): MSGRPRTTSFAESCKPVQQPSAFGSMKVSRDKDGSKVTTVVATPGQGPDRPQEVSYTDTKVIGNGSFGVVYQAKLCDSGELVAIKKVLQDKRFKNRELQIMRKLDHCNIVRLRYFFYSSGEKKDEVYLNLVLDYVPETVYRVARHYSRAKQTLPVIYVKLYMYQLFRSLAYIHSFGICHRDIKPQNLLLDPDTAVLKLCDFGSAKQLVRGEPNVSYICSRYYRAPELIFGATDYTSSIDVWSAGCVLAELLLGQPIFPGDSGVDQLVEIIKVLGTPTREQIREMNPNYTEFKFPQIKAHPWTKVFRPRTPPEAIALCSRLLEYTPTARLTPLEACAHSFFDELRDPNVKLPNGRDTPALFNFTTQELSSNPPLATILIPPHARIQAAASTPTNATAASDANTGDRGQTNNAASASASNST

Vero = Vero cell cytotoxicity, cytotoxicity control for flavivirus capping enzyme inhibitors (AID 588742); format: functional; details: Chlorocebus sabaeus
HEK293 [4] = assay: inhibitors of LMP1-driven NF-kB reporter, dose response, cell-based, HEK293, luciferase, cherry-pick (AID 588343); format: functional; details: Homo sapiens
[5] = target: T1, Replicative DNA helicase DnaB (Mycobacterium tuberculosis, UniProt P9WMR3); assay: DnaB intein splicing inhibitors, dose response, biochemical, cell-free fluorescence (AID 449749); format: functional
T1 sequence (P9WMR3 whole entry): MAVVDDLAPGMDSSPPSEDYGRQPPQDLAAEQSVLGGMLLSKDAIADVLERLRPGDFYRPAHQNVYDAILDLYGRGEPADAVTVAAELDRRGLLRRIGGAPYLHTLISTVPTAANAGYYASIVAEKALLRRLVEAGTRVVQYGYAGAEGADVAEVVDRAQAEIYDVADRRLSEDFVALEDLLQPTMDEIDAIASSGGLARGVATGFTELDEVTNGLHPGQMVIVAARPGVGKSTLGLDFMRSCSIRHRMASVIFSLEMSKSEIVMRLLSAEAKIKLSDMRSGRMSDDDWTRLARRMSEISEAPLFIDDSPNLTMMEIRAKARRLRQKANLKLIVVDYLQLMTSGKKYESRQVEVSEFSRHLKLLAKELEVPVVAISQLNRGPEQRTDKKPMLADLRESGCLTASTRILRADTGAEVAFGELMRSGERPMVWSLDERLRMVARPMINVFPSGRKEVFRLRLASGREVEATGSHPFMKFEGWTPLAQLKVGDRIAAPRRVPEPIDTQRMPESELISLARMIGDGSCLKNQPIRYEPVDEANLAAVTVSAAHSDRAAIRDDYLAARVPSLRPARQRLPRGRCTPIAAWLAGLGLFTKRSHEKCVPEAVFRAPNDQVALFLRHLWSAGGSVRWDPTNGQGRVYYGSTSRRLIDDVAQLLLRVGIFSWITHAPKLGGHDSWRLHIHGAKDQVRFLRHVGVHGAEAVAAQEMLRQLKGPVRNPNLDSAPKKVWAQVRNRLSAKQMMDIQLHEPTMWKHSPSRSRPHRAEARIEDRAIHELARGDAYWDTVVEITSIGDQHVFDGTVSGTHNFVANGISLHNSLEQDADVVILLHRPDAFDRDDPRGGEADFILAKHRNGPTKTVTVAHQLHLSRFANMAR

Genome polyprotein = Genome polyprotein (dengue virus type 2, UniProt P29990); assay: Dengue-2 NS5 methyltransferase inhibitors, primary screen, biochemical, confirmation dose response (AID 588689); format: functional
Chain of Genome polyprotein (P29990 2492-3391 limits assumed): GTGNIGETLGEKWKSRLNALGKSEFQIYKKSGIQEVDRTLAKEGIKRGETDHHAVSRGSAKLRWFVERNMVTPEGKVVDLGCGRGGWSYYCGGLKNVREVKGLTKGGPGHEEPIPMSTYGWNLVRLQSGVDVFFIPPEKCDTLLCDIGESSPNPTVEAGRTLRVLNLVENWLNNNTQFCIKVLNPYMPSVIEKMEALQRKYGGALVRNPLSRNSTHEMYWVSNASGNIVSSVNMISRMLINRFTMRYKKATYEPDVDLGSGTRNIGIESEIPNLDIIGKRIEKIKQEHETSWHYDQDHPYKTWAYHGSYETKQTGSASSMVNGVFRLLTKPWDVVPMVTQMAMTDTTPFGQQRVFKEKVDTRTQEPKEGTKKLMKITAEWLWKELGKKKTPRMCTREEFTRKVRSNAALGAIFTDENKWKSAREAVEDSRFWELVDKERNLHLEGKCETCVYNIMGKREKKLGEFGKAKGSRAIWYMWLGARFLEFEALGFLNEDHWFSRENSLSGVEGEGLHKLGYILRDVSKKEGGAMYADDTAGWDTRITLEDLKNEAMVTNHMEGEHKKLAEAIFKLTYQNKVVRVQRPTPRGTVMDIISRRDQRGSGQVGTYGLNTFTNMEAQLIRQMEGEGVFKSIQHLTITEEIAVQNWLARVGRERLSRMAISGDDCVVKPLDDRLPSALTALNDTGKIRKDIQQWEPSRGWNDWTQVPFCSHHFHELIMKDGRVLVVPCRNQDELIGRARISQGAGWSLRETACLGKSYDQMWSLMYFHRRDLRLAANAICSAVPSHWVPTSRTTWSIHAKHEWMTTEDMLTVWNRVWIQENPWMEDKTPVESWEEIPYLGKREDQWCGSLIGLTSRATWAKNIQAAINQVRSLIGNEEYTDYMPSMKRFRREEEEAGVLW

Protein RecA = target: T2, Protein RecA (Mycobacterium tuberculosis, UniProt P9WHJ3); assay: Fluorescence Cell-Free Homogeneous Dose Retest to Identify Inhibitors of RecA-Intein Splicing Activity. [Related pubchem assays (depositor defined):AID2097, AID2223, AID489010, AID492950]; format: functional
T2 sequence (P9WHJ3 whole entry): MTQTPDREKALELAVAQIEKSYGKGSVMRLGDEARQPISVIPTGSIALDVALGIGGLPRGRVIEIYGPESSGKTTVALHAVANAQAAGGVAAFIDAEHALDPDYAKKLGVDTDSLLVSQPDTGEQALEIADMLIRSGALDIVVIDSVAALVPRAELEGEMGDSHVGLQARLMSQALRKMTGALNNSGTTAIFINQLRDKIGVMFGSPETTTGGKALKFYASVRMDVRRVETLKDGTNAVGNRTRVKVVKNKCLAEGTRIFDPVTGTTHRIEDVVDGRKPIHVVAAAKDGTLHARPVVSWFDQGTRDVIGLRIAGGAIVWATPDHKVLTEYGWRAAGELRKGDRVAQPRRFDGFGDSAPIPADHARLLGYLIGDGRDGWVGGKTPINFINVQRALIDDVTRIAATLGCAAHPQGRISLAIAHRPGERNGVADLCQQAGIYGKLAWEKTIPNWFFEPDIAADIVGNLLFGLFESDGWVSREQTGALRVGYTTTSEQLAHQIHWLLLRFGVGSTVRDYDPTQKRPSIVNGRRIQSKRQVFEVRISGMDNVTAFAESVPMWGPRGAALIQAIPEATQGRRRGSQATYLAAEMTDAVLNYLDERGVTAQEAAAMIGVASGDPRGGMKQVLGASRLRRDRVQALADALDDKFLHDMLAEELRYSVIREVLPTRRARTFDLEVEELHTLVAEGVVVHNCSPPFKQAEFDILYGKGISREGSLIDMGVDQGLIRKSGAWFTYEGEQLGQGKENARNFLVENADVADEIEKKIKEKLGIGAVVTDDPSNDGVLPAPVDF

[6] = target: T3, Long-chain-fatty-acid--AMP ligase FadD28 (Mycobacterium tuberculosis, UniProt P9WQ59); assay: Fluorescence polarization aasay to screen for inhibitors that compete for the binding of FadD28 to a bisubstrate Measured in Biochemical System Using Plate Reader - 2147-01_Inhibitor_Dose_CherryPick_Activity.; format: functional, Mycobacterium tuberculosis H37Rv
T3 sequence (P9WQ59 whole entry): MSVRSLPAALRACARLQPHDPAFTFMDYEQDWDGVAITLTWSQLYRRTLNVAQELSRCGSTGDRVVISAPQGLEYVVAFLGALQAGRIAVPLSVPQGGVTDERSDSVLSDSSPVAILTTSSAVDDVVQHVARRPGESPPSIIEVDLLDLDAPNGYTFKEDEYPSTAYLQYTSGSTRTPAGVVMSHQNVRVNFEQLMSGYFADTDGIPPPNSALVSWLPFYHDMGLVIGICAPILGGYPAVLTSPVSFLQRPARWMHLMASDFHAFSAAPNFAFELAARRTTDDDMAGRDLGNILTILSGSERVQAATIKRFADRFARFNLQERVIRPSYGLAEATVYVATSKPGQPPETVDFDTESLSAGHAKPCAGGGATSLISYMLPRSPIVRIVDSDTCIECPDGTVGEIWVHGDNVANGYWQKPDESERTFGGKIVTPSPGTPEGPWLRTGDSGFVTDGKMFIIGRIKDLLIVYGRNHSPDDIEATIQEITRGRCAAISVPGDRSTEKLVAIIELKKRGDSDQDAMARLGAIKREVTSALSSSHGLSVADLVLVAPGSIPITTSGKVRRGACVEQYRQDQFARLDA

[7] = target: Latent membrane protein 1 (Human herpesvirus 4 (strain B95-8), UniProt P03230); assay: TES1-eGFP NF-kB reporter inhibition versus Tet-On dsRED, dose response, selectivity assay for LMP1 NF-kB inhibitor project, imaging, HEK293T, dual-color eGFP/dsRED, cherry-picks (AID 588398); format: functional, cell-based
Chain of Latent membrane protein 1 (P03230 whole entry): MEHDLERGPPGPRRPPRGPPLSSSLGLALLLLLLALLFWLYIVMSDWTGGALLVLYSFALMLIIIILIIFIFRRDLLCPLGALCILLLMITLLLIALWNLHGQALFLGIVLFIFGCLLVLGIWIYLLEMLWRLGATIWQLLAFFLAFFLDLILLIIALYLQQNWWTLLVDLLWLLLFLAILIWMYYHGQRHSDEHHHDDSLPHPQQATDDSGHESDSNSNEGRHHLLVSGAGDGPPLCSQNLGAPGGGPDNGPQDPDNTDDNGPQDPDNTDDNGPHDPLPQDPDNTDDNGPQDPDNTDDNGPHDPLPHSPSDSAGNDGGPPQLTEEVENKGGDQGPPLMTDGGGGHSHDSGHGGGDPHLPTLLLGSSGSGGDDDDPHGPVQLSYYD

[8] = target: T4, High affinity choline transporter 1 (Homo sapiens, UniProt Q9GZV3); assay: CHT activators, dose response, cell-based, 10-point CRC, membrane potential dye (AID 602376); format: functional
T4 sequence (Q9GZV3 whole entry): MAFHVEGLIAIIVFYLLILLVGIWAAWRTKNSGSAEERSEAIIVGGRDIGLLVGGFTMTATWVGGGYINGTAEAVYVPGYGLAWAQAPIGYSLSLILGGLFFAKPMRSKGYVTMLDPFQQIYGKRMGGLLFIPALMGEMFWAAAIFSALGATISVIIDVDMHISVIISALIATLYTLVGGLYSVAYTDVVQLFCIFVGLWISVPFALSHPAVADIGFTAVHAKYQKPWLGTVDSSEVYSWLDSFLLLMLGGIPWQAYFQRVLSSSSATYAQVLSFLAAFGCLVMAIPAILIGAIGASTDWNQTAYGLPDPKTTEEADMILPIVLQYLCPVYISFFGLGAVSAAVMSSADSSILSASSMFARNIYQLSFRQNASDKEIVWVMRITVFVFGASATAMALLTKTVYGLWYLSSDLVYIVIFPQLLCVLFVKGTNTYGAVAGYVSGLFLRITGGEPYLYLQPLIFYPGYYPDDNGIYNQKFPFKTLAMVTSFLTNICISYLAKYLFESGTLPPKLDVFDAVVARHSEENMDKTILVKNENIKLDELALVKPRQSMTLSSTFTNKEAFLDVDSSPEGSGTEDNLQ

Insulin-degrading enzyme [9] = target: T5, Insulin-degrading enzyme (Homo sapiens, UniProt P14735); assay: activators of recombinant IDE enzyme, dose response, counter-screen for IDE activator project, biochemical, fluorescence polarization (AID 588681)
T5 sequence (P14735 whole entry): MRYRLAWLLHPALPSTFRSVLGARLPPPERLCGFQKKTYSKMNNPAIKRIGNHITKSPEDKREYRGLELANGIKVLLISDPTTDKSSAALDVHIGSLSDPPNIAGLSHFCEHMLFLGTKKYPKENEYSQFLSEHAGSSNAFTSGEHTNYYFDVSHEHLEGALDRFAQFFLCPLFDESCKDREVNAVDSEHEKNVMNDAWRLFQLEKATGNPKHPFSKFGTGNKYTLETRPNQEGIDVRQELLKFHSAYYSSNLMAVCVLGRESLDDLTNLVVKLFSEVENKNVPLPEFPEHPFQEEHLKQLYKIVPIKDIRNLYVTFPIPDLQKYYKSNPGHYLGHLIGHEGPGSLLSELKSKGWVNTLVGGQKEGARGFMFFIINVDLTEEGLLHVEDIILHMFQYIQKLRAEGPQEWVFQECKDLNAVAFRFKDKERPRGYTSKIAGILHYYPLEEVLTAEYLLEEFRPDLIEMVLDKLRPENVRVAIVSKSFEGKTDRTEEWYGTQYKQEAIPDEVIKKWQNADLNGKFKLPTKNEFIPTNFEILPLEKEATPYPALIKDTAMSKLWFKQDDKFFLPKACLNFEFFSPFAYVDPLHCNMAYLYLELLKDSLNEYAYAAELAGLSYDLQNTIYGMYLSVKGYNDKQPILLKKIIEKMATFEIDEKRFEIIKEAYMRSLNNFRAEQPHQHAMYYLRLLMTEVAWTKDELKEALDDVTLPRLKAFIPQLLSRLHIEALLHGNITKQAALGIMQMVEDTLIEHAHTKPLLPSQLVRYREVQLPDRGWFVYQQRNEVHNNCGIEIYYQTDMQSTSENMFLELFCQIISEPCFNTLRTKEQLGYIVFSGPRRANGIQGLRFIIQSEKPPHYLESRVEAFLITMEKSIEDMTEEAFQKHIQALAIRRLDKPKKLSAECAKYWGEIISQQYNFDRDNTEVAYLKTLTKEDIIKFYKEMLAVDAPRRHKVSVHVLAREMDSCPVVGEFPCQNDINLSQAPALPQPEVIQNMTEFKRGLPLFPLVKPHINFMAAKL

[10] = target: T6, RNA-binding protein pos-1 (Caenorhabditis elegans, UniProt G5EF15); assay: inhibitors of POS-1/mex-3 RNA binding, dose response, biochemical, fluorescence polarization (AID 1964);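 also: purified POS-1 fused to maltose binding protein made in E. coli; potency of compounds blocking POS-1 binding to fluorescent RNA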
T6 sequence (G5EF15 whole entry): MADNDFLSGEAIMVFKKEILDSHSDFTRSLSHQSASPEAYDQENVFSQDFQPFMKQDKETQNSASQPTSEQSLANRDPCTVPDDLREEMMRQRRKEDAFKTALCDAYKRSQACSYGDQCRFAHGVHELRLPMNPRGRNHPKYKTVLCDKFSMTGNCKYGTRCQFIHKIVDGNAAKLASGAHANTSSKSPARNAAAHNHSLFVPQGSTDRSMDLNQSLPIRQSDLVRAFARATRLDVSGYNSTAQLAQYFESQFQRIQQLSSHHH

[11] = target: T7, Zinc finger protein mex-5 (Caenorhabditis elegans, UniProt Q9XUB2); assay: MEX-5/TCR-2 RNA interaction inhibitors, dose response, biochemical, C. elegans, fluorescence polarization (AID 1960)
T7 sequence (Q9XUB2 whole entry): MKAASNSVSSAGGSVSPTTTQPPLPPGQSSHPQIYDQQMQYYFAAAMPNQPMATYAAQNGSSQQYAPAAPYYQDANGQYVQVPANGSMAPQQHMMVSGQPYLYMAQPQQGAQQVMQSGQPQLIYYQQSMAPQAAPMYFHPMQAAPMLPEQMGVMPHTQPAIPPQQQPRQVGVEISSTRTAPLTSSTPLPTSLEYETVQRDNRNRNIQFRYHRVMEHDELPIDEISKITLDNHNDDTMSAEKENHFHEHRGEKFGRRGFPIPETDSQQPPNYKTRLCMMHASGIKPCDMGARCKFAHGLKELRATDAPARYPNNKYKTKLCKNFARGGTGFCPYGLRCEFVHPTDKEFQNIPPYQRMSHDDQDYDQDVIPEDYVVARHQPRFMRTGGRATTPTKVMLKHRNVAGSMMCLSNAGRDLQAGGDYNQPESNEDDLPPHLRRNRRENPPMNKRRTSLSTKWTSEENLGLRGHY

[12] = NIH-3T3 fibroblast cytotoxicity, dose response, cytotoxicity control, cell-based, fluorescence, Alamar Blue, secondary assay (AID 2327); format: functional;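 also: NIH-3T3 mouse fibroblasts cultured with fluconazole at 8 µg/mL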
HEK293 [13] = assay: HEK cell cytotoxicity by LDH release, dose response, cytotoxicity control for IDE activator project, fluorescence, HEK cells (AID 588440); format: functional, cell-based; details: Homo sapiens;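 also: cytotoxicity by LDH release measuring loss of membrane integrity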
[14] = C. albicans growth with fluconazole, confirmation, fluorescence, retest (AID 2467); format: functional, cell-based
HEK293 [15] = assay: optical interference in Abeta FP readout, dose response, artefact control for IDE activator project, biochemical, fluorescence polarization (AID 588442); format: functional, cell-based; details: Homo sapiens
Insulin-degrading enzyme [16] = target: T5, Insulin-degrading enzyme; assay: activators of endogenous IDE in HEK cells, dose response, cell-based, fluorescence polarization (AID 588439); format: functional

Chain of Cyclin-dependent kinase 5/CDK5 activator 1 (Q00535 whole entry): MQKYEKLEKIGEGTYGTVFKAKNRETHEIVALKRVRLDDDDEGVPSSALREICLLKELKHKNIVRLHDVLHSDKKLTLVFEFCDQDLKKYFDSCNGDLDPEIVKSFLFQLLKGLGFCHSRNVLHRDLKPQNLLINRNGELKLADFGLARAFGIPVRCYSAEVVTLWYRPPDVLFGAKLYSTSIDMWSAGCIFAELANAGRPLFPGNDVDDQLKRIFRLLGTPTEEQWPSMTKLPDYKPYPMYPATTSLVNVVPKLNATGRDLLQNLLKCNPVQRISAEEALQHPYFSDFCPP
Chain of Cyclin-dependent kinase 5/CDK5 activator 1 (Q15078 whole entry, further chain): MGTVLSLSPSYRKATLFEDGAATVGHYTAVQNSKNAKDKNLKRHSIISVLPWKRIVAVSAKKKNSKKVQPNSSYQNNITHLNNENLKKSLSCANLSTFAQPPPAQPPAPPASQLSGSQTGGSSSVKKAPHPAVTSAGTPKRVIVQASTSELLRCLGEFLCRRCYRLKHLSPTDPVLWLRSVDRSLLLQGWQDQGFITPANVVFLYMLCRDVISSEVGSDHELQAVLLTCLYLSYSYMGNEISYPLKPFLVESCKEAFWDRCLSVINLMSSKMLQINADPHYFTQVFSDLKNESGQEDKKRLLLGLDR

O=C1c2ccccc2-c2onc3ccc(NCCCN4CCNC4)c1c23
AC50 [1]: 76.2 µM (active)
AC50 [2]: 0.52 µM (active)
AC50 [3]: 0.161 µM (active)

CCc1ccc(/C=C/C(=O)C2C(=O)c3ccccc3C2=O)cc1
CC50 (Vero): 34.7 µM (active)
AC50 (HEK293 [4]): 4.59 µM (active)
AC50 [5]: 51.1 µM (active)
IC50 (Genome polyprotein): 62.8 µM (active)
EC50 (Protein RecA): 22.7 µM (active)
AC50 [6]: 80.4 µM (active)
AC50 [7]: 27.4 µM (active)

COc1cc2c(cc1OC)C(c1cccs1)N(C(S)=NC(C)C)CC2 (centres undefined)
EC50 [8]: 17.5 µM (active)

O=C1c2cccc3c(O)ccc(c23)C(=O)N1Cc1ccccc1
EC50 (Insulin-degrading enzyme [9]): > 54.7 µM (inactive)
EC50 [10]: 2.62 µM (active)
EC50 [11]: 0.183 µM (inconclusive)
EC50 [12]: 85.7 µM (active)
IC50 (HEK293 [13]): > 89.2 µM (inactive)
EC50 [14]: 0.082 µM (active)
EC50 (HEK293 [15]): > 54.7 µM (inactive)
EC50 (Insulin-degrading enzyme [16]): > 54.7 µM (inactive)
